Measured values: the NIST ThermoML archive (doi:10.1016/j.jct.2009.05.006)
Numbers after ± are expanded uncertainties.

Tests used:
[1] = xn = mol fraction of the nth substance listed; details: 298.15 K, 101 kPa, Liquid, Vibrating tube method
[2] = excess molar enthalpy (molar enthalpy of mixing); xn = mol fraction of the nth substance listed; details: 298.15 K, 101 kPa, Liquid, Calvet calorimetry

Question: With `BrCCCCCBr` [1,5-dibromopentane] + CCCCOC=O as the compound, how does the mass density ([1]; x2 = 0.0756) read?
Answer: The mass density was 1642.01 ± 0.82 kg/m3.

Question: What about the mass density ([1]; x2 = 0.1366) of the same compound?
Answer: The mass density was 1599.08 ± 0.77 kg/m3.

Question: And the mass density ([1]; x2 = 0.2027)?
Answer: Its mass density is 1551.59 ± 0.73 kg/m3.

Question: And the mass density ([1]; x2 = 0.2682)?
Answer: Its mass density is 1503.58 ± 0.68 kg/m3.

Question: And the mass density ([1]; x2 = 0.3259)?
Answer: Its mass density is 1460.47 ± 0.64 kg/m3.

Question: What about the mass density ([1]; x2 = 0.3871) of the same compound?
Answer: Its mass density is 1413.8 ± 0.59 kg/m3.

Question: What about the mass density ([1]; x2 = 0.4492) of the same compound?
Answer: The mass density was 1365.54 ± 0.55 kg/m3.

Question: And the mass density ([1]; x2 = 0.5143)?
Answer: The mass density was 1313.85 ± 0.5 kg/m3.

Question: What about the mass density ([1]; x2 = 0.5679) of the same compound?
Answer: Its mass density is 1270.35 ± 0.46 kg/m3.

Question: And the mass density ([1]; x2 = 0.6274)?
Answer: The mass density was 1221.19 ± 0.42 kg/m3.

Question: What about the mass density ([1]; x2 = 0.687) of the same compound?
Answer: The mass density was 1170.94 ± 0.38 kg/m3.

Question: And the mass density ([1]; x2 = 0.7958)?
Answer: The mass density was 1076.48 ± 0.3 kg/m3.

Question: What about the mass density ([1]; x2 = 0.8434) of the same compound?
Answer: The mass density was 1033.97 ± 0.27 kg/m3.

Question: And the mass density ([1]; x2 = 0.9499)?
Answer: Its mass density is 936.18 ± 0.25 kg/m3.

Question: What about the excess molar enthalpy ([2]; x2 = 0.0868) of the same compound?
Answer: The excess molar enthalpy was 0.0232 ± 0.000478 kcal/mol.

Question: What about the excess molar enthalpy ([2]; x2 = 0.1853) of the same compound?
Answer: The excess molar enthalpy was 0.0394 ± 0.000956 kcal/mol.

Question: What about the excess molar enthalpy ([2]; x2 = 0.2872) of the same compound?
Answer: Its excess molar enthalpy is 0.0531 ± 0.0012 kcal/mol.

Question: What about the excess molar enthalpy ([2]; x2 = 0.3842) of the same compound?
Answer: The excess molar enthalpy was 0.0598 ± 0.00143 kcal/mol.

Question: And the excess molar enthalpy ([2]; x2 = 0.4656)?
Answer: The excess molar enthalpy was 0.0605 ± 0.00143 kcal/mol.

Question: What about the excess molar enthalpy ([2]; x2 = 0.5328) of the same compound?
Answer: The excess molar enthalpy was 0.0578 ± 0.0012 kcal/mol.

Question: And the excess molar enthalpy ([2]; x2 = 0.5803)?
Answer: The excess molar enthalpy was 0.0557 ± 0.0012 kcal/mol.

Question: What about the excess molar enthalpy ([2]; x2 = 0.6291) of the same compound?
Answer: Its excess molar enthalpy is 0.0521 ± 0.0012 kcal/mol.

Question: What about the excess molar enthalpy ([2]; x2 = 0.7084) of the same compound?
Answer: Its excess molar enthalpy is 0.0447 ± 0.000956 kcal/mol.

Question: What about the excess molar enthalpy ([2]; x2 = 0.7902) of the same compound?
Answer: Its excess molar enthalpy is 0.0332 ± 0.000717 kcal/mol.

Question: What about the excess molar enthalpy ([2]; x2 = 0.8713) of the same compound?
Answer: Its excess molar enthalpy is 0.0215 ± 0.000478 kcal/mol.

Question: What about the excess molar enthalpy ([2]; x2 = 0.9437) of the same compound?
Answer: Its excess molar enthalpy is 0.0112 ± 0.000478 kcal/mol.

Question: With `CCCCOC(=O)CCC` [butyl butanoate] + BrCCBr as the compound, how does the excess molar enthalpy ([2]; x1 = 0.0408) read?
Answer: The excess molar enthalpy was 0.00621 ± 0.000239 kcal/mol.

Question: What about the excess molar enthalpy ([2]; x1 = 0.0978) of the same compound?
Answer: Its excess molar enthalpy is 0.0115 ± 0.000478 kcal/mol.

Question: What about the excess molar enthalpy ([2]; x1 = 0.1663) of the same compound?
Answer: Its excess molar enthalpy is 0.0139 ± 0.000478 kcal/mol.

Question: And the excess molar enthalpy ([2]; x1 = 0.2361)?
Answer: The excess molar enthalpy was 0.0122 ± 0.000478 kcal/mol.

Question: And the excess molar enthalpy ([2]; x1 = 0.2997)?
Answer: The excess molar enthalpy was 0.00765 ± 0.000239 kcal/mol.

Question: And the excess molar enthalpy ([2]; x1 = 0.3488)?
Answer: The excess molar enthalpy was 0.00359 ± 0.000239 kcal/mol.

Question: What about the excess molar enthalpy ([2]; x1 = 0.4085) of the same compound?
Answer: Its excess molar enthalpy is -0.000478 ± 0.000239 kcal/mol.

Question: What about the excess molar enthalpy ([2]; x1 = 0.4847) of the same compound?
Answer: Its excess molar enthalpy is -0.00645 ± 0.000239 kcal/mol.

Question: And the excess molar enthalpy ([2]; x1 = 0.5816)?
Answer: Its excess molar enthalpy is -0.0115 ± 0.000478 kcal/mol.

Question: And the excess molar enthalpy ([2]; x1 = 0.7159)?
Answer: Its excess molar enthalpy is -0.0129 ± 0.000478 kcal/mol.

Question: And the excess molar enthalpy ([2]; x1 = 0.8632)?
Answer: The excess molar enthalpy was -0.00884 ± 0.000239 kcal/mol.

Question: And the excess molar enthalpy ([2]; x1 = 0.9347)?
Answer: Its excess molar enthalpy is -0.00526 ± 0.000239 kcal/mol.

Question: What does the source list for `BrCCCBr` [1,3-dibromopropane] + CCCCOC(C)=O?
Answer: excess molar enthalpy ([2]; x2 = 0.0548): 0.00191 ± 0.000239 kcal/mol; excess molar enthalpy ([2]; x2 = 0.1295): 0.00287 ± 0.000239 kcal/mol; excess molar enthalpy ([2]; x2 = 0.2133): 0.00191 ± 0.000239 kcal/mol; excess molar enthalpy ([2]; x2 = 0.2909): -0.00167 ± 0.000239 kcal/mol; excess molar enthalpy ([2]; x2 = 0.3612): -0.0086 ± 0.000239 kcal/mol; excess molar enthalpy ([2]; x2 = 0.424): -0.017 ± 0.000478 kcal/mol; excess molar enthalpy ([2]; x2 = 0.4792): -0.0251 ± 0.000717 kcal/mol; excess molar enthalpy ([2]; x2 = 0.5321): -0.0289 ± 0.000717 kcal/mol; excess molar enthalpy ([2]; x2 = 0.6141): -0.0296 ± 0.000717 kcal/mol; excess molar enthalpy ([2]; x2 = 0.7077): -0.0277 ± 0.000717 kcal/mol; excess molar enthalpy ([2]; x2 = 0.808): -0.0217 ± 0.000478 kcal/mol; excess molar enthalpy ([2]; x2 = 0.9143): -0.0131 ± 0.000478 kcal/mol

Question: Which results are given for `CCCCOC(=O)CCC` [butyl butanoate] + BrCCCCBr?
Answer: mass density ([1]; x1 = 0.0459): 1757.74 ± 0.95 kg/m3; mass density ([1]; x1 = 0.1377): 1643.47 ± 0.83 kg/m3; mass density ([1]; x1 = 0.1788): 1594.83 ± 0.78 kg/m3; mass density ([1]; x1 = 0.2814): 1479.86 ± 0.66 kg/m3; mass density ([1]; x1 = 0.3346): 1423.4 ± 0.61 kg/m3; mass density ([1]; x1 = 0.3891): 1367.86 ± 0.55 kg/m3; mass density ([1]; x1 = 0.5003): 1260.78 ± 0.46 kg/m3; mass density ([1]; x1 = 0.5704): 1197.33 ± 0.4 kg/m3; mass density ([1]; x1 = 0.6285): 1146.9 ± 0.36 kg/m3; mass density ([1]; x1 = 0.7046): 1083.68 ± 0.31 kg/m3; mass density ([1]; x1 = 0.7684): 1032.96 ± 0.27 kg/m3; mass density ([1]; x1 = 0.8513): 970.06 ± 0.24 kg/m3; mass density ([1]; x1 = 0.9156): 923.4 ± 0.24 kg/m3; excess molar enthalpy ([2]; x1 = 0.0526): 0.00645 ± 0.000239 kcal/mol; excess molar enthalpy ([2]; x1 = 0.1195): 0.0117 ± 0.000478 kcal/mol; excess molar enthalpy ([2]; x1 = 0.1947): 0.0139 ± 0.000478 kcal/mol; excess molar enthalpy ([2]; x1 = 0.2716): 0.0117 ± 0.000478 kcal/mol; excess molar enthalpy ([2]; x1 = 0.3471): 0.0055 ± 0.000239 kcal/mol; excess molar enthalpy ([2]; x1 = 0.4134): -0.00263 ± 0.000239 kcal/mol; excess molar enthalpy ([2]; x1 = 0.471): -0.0117 ± 0.000478 kcal/mol; excess molar enthalpy ([2]; x1 = 0.5005): -0.0155 ± 0.000478 kcal/mol; excess molar enthalpy ([2]; x1 = 0.579): -0.0206 ± 0.000478 kcal/mol; excess molar enthalpy ([2]; x1 = 0.6761): -0.0222 ± 0.000478 kcal/mol; excess molar enthalpy ([2]; x1 = 0.7901): -0.0196 ± 0.000478 kcal/mol; excess molar enthalpy ([2]; x1 = 0.9017): -0.0122 ± 0.000478 kcal/mol

Question: Which results are given for `BrCCCCCCBr` [1,6-dibromohexane] + CCCCOC=O?
Answer: mass density ([1]; x2 = 0.0793): 1558.23 ± 0.73 kg/m3; mass density ([1]; x2 = 0.1555): 1514.85 ± 0.69 kg/m3; mass density ([1]; x2 = 0.2238): 1474.51 ± 0.65 kg/m3; mass density ([1]; x2 = 0.2952): 1430.8 ± 0.61 kg/m3; mass density ([1]; x2 = 0.3567): 1391.77 ± 0.57 kg/m3; mass density ([1]; x2 = 0.4201): 1350.14 ± 0.53 kg/m3; mass density ([1]; x2 = 0.4813): 1308.59 ± 0.5 kg/m3; mass density ([1]; x2 = 0.5983): 1224.92 ± 0.42 kg/m3; mass density ([1]; x2 = 0.6603): 1178.22 ± 0.38 kg/m3; mass density ([1]; x2 = 0.7628): 1097.17 ± 0.32 kg/m3; mass density ([1]; x2 = 0.8097): 1058.36 ± 0.29 kg/m3; mass density ([1]; x2 = 0.854): 1020.74 ± 0.26 kg/m3; mass density ([1]; x2 = 0.9078): 973.55 ± 0.25 kg/m3; excess molar enthalpy ([2]; x2 = 0.0858): 0.0241 ± 0.000717 kcal/mol; excess molar enthalpy ([2]; x2 = 0.1844): 0.0413 ± 0.000956 kcal/mol; excess molar enthalpy ([2]; x2 = 0.2879): 0.0566 ± 0.0012 kcal/mol; excess molar enthalpy ([2]; x2 = 0.3755): 0.0655 ± 0.00143 kcal/mol; excess molar enthalpy ([2]; x2 = 0.4521): 0.0686 ± 0.00143 kcal/mol; excess molar enthalpy ([2]; x2 = 0.5188): 0.0674 ± 0.00143 kcal/mol; excess molar enthalpy ([2]; x2 = 0.6009): 0.0636 ± 0.00143 kcal/mol; excess molar enthalpy ([2]; x2 = 0.6581): 0.0583 ± 0.0012 kcal/mol; excess molar enthalpy ([2]; x2 = 0.7307): 0.0497 ± 0.0012 kcal/mol; excess molar enthalpy ([2]; x2 = 0.8078): 0.0375 ± 0.000956 kcal/mol; excess molar enthalpy ([2]; x2 = 0.8827): 0.0246 ± 0.000717 kcal/mol; excess molar enthalpy ([2]; x2 = 0.9487): 0.0134 ± 0.000478 kcal/mol
